One test deals with neuroblastoma cell lines. Conditions: cited from earlier work.
A further test concerns D283Med. In words: Side population (Hoechst 33342 excretion) flow cytometry. The class given is cell-based. How it is done:
(§1) The ability to excrete Hoechst dye, which defines SP (also known as “side population”) in flow cytometric analyses, is another marker of tumor-initiating CSC in the blood and brain (7, 8, 20). SP was therefore analyzed to obtain a second measure of the effects of Notch on CSC.
(§2) Flow cytometric analysis of S-phase fraction and cell cycle kinetics was performed using a FACSCalibur (Becton Dickinson, San Jose, Calif.) with CELL Quest, version 3.3 software (15). CD133 studies were performed using the same instrument, with antibodies from Miltenyi (Miltenyi Biotec, Auburn, Calif.) according to the manufacturer's instructions. […] Prior to analysis, cells were washed and resuspended in 2 μg/ml PI (Sigma, St. Louis, Mo.). […] To ensure proper identification of SP cells, cells were incubated as above with the addition of 50 μM verapamil (Sigma).

In a further test the test system is D425Med. The test is described as above. Format: cell-based. As for the experimental part: as §1, §2
In another test the test system is DAOY. Described as above. The class given is cell-based. How it is done: as §1, §2

For the compound `O=C1c2c(O)ccc(O)c2C(=O)c2c(NCCNCCO)ccc(NCCNCCO)c21` [Mitoxantrone], in the test with neuroblastoma cell lines, the side population entry is “increases the side population”.

`COc1ccc(CCN(C)CCCC(C#N)(c2ccc(OC)c(OC)c2)C(C)C)cc1OC` (stereo not shown) [verapamil, reference compound]: the side population result in the test with D283Med and with D425Med was “ablated” in each case. Besides, the “Hoechst excretion (side population)” value in the test on DAOY was “abolished Hoechst excretion”.
